From PMC3329801 (Nature Chemical Biology, 2011)

System: influenza virus NS1 protein levels
Type: cell-based

| SMILES | viral protein levels in REDD1−/− cells (autophagy inhibitor treatment, Fig. S13) | viral protein levels in REDD1+/+ and REDD1−/− cells | influenza virus NS1 protein levels (Fig. S7) |
| --- | --- | --- | --- |
| CCN(CC)CCCC(C)Nc1ccnc2cc(Cl)ccc12 (stereo not drawn) [chloroquine] | did not affect viral protein levels |  |  |
| CO[C@H]1C[C@@H]2CC[C@@H](C)[C@@](O)(O2)C(=O)C(=O)N2CCCC[C@H]2C(=O)O[C@H]([C@H](C)C[C@@H]2CC[C@@H](O)[C@H](OC)C2)CC(=O)[C@H](C)/C=C(\C)[C@@H](O)[C@@H](OC)C(=O)[C@H](C)C[C@H](C)/C=C/C=C/C=C/1C [rapamycin] |  | down-regulated viral protein levels | reduced influenza virus NS1 protein levels |
